This test deals with human CXCR3-A receptor (Homo sapiens (Human), UniProt P49682). Description: 125I-CXCL10 competition radioligand binding assay. The conditions noted are these: displacement of 125I-CXCL10 from membranes of CHO cells expressing human recombinant CXCR3-A. Here is the method:
IC50 values were determined for the test compounds and used to explore the structure-activity relationships (SAR). […] This cell line was registered in Sanofi-Aventis cell line bank. […] Cell suspension was diluted with PBS and cells were collected with centrifugation at 230 g for 10 minutes at 10° C. with a Juan centrifuge. […] The supernatant was carefully collected and centrifuged at 100,000×g for 60 min at 4° with a Beckman Avanti J30 centrifuge. […] Protein concentration was determined with Bio-Rad protein assay (Cat No 500-0006). Membrane aliquots were stored at -80° C. […] The composition of the binding assay buffer was determined in a course of detailed optimization procedure. […] Binding reaction was initiated by adding of membranes (10-20 μg proteins, approximately 5×10^5 cell equivalents) to the reaction mixture. After 60 minutes of incubation at 25° C. the reaction was terminated by rapid filtration over GF/B glass fiber filters that were pre-soaked with 0.5% polyethyleneimine (Fluka Analytical, P3143) for 1 hour, using a Skatron cell harvester device. Filters then were washed with 8 ml of ice-cold wash buffer (modified binding buffer in which BSA was omitted and the concentration of NaCl was adjusted to 500 mM concentration). The radioactivity retained on the filters was measured by a Wizard 1470 Automatic Gamma counter. Test compounds were dissolved prior to the binding assay at a concentration of 10 mM in DMSO. Stock solutions were stored at -20° C. for not longer than 3 months. […] Before adding these solutions of test compound to the binding reaction mixture, an intermediate dilution procedure was applied, in which 30 μL of each solution sample was transferred into a dilution tube containing 970 μL of binding assay buffer. […] The IC50 values and Hill slopes for competition binding data were obtained using nonlinear four-parametric curve fitting method.
(In general: Displacement assays read how much labelled ligand stays bound in the presence of the test substance.)
Chain of human CXCR3-A receptor (P49682 whole entry): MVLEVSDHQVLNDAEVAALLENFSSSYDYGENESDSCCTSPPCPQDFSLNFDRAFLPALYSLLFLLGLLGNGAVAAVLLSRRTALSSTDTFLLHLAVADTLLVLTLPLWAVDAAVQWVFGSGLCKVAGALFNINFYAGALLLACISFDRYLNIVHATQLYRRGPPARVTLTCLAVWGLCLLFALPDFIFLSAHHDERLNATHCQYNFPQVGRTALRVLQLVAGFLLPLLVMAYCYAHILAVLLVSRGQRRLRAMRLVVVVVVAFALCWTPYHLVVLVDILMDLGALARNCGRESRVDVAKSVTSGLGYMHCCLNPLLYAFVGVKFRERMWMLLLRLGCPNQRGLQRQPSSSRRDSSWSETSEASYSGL
With `COc1cc(CN(C[C@H]2CC[C@H](C(=O)O)CC2)[C@@H]2CCc3cc(Cl)ccc32)ccc1OCCN1C(=O)CCC1=O` [Example 11, trans-4-[(((R)-5-Chloro-indan-1-yl)-{4-[2-(2,5-dioxo-pyrrolidin-1-yl)-ethoxy]-3-methoxy-benzyl}-amino)-methyl]cyclohexanecarboxylic acid], the IC50 (commonly the concentration that gives 50% inhibition) stood at 200 nM.

With `COc1cc(CN(C[C@H]2CC[C@@H](C(=O)O)C2)[C@@H](C)c2ccc(Cl)cc2)ccc1OCCN1C(=O)CCC1=O` [Example 101, (1R,3S)-3-[([(S)-1-(4-Chloro-phenyl)-ethyl]-{4-[2-(2,5-dioxo-pyrrolidin-1-yl)-ethoxy]-3-methoxy-benzyl}-amino)-methyl]-cyclopentanecarboxylic acid], the IC50 was found to be 1810 nM.

As to `CC(c1ccc(Cl)c(F)c1)N(Cc1ccc(OCCN2C(=O)CCC2=O)c(F)c1)C[C@H]1CC[C@H](C(=O)O)CC1` (stereo partly drawn) [Example 92, trans-4-[([1-(4-Chloro-3-fluoro-phenyl)-ethyl]-{4-[2-(2,5-dioxo-pyrrolidin-1-yl)-ethoxy]-3-fluoro-benzyl}-amino)-methyl]-cyclohexanecarboxylic acid], the IC50 was found to be 220 nM.

Consider `COc1cc(CN(C[C@H]2CC[C@H](C(=O)O)CC2)[C@H]2CCc3cc(Cl)ccc32)ccc1OCCN1C(=O)CC2(CCCC2)CC1=O` [Example 147, 4-[(((S)-5-Chloro-indan-1-yl)-{4-[2-(7,9-dioxo-8-aza-spiro[4.5]dec-8-yl)-ethoxy]-3-methoxy-benzyl}-amino)-methyl]-cyclohexanecarboxylic acid], for which the IC50 came out at 7000 nM.

Turning to `CCC(c1ccc(Cl)c(Cl)c1)N(Cc1ccc(OCCN2C(=O)CCC2=O)c(OC)c1)[C@H]1C[C@@H](C(=O)O)C1` (stereo partly drawn) [Example 141, cis-3-([1-(3,4-Dichloro-phenyl)-propyl]-{4-[2-(2,5-dioxo-pyrrolidin-1-yl)-ethoxy]-3-methoxy-benzyl}-amino)-cyclobutanecarboxylic acid], the IC50 is 200 nM.

Consider `COc1cc(CN(C[C@H]2CC[C@H](C(=O)O)CC2)[C@@H](C)c2ccc(Cl)cc2)ccc1OCCN1C(=O)COC1=O` [Example 36, trans-4-[([(S)-1-(4-Chloro-phenyl)-ethyl]-{4-[2-(2,4-dioxo-oxazolidin-3-yl)-ethoxy]-3-methoxy-benzyl}-amino)-methyl]-cyclohexanecarboxylic acid], for which the IC50 was determined as 28 nM.

Consider `COc1cc(CN(C(C)c2ccc(Cl)c(Cl)c2)[C@H]2C[C@@H](C(=O)O)C2)ccc1OCCN1C(=O)CCC1=O` (stereo partly drawn) [Example 137, cis-3-([1-(3,4-Dichloro-phenyl)-ethyl]-{4-[2-(2,5-dioxo-pyrrolidin-1-yl)-ethoxy]-3-methoxy-benzyl}-amino)-cyclobutanecarboxylic acid], for which the IC50 came to 104 nM.

As for `COc1cc(CN(C[C@H]2CC[C@H](C(=O)O)CC2)C2CCc3cc(Cl)ccc32)ccc1OCCn1c(=O)ccn(C)c1=O` (stereo partly drawn) [Example 48, trans-4-[((5-Chloro-indan-1-yl)-{3-methoxy-4-[2-(3-methyl-2,6-dioxo-3,6-dihydro-2H-pyrimidin-1-yl)-ethoxy]-benzyl}-amino)-methyl]-cyclohexanecarboxylic acid], the IC50 was 409 nM.

As for `CCc1cc(CN(C[C@H]2CC[C@H](C(=O)O)CC2)[C@H](C)c2ccc(Cl)c(F)c2)ccc1OCCN1C(=O)CCC1=O` [Example 90, trans-4-[([(R)-1-(4-Chloro-3-fluoro-phenyl)-ethyl]-{4-[2-(2,5-dioxo-pyrrolidin-1-yl)-ethoxy]-3-ethyl-benzyl}-amino)-methyl]-cyclohexanecarboxylic acid], the IC50 was 494 nM.

Regarding `COc1cc(CN([C@H]2C[C@@H](C(=O)O)C2)[C@H](C)c2ccc3c(c2)CCO3)ccc1OCCn1c(=O)ccn(C)c1=O` [Example 122, cis-3-([(R)-1-(2,3-Dihydro-benzofuran-5-yl)-ethyl]-{3-methoxy-4-[2-(3-methyl-2,6-dioxo-3,6-dihydro-2H-pyrimidin-1-yl)-ethoxy]-benzyl}-amino)-cyclobutanecarboxylic acid], the IC50 is 70 nM.

`CCc1cc(CN([C@H]2C[C@@H](C(=O)O)C2)[C@H](C)c2ccc(Cl)c(F)c2)ccc1OCCN1C(=O)CCC1=O` [Example 151, cis-3-([(R)-1-(4-Chloro-3-fluoro-phenyl)-ethyl]-{4-[2-(2,5-dioxo-pyrrolidin-1-yl)-ethoxy]-3-ethyl-benzyl}-amino)-cyclobutanecarboxylic acid]: the IC50 stood at 457 nM.

Regarding `CCC(c1ccc(Cl)cc1)N(Cc1ccc(OCCN2C(=O)CCC2=O)c(OC)c1)C[C@H]1[C@H](C(=O)O)C1(C)C` (stereo partly drawn) [Example 117, (1S,3S)-3-[([1-(4-Chloro-phenyl)-propyl]-{4-[2-(2,5-dioxo-pyrrolidin-1-yl)-ethoxy]-3-methoxy-benzyl}-amino)-methyl]-2,2-dimethyl-cyclopropanecarboxylic acid], the IC50 came out at 71 nM.

As to `Cc1cc(CN([C@H]2C[C@@H](C(=O)O)C2)[C@H](C)c2ccc(Cl)cc2)ccc1OCCn1c(=O)ccn(C)c1=O` [Example 136, cis-3-([(R)-1-(4-Chloro-phenyl)-ethyl]-{3-methyl-4-[2-(3-methyl-2,6-dioxo-3,6-dihydro-2H-pyrimidin-1-yl)-ethoxy]-benzyl}-amino)-cyclobutanecarboxylic acid], the IC50 was 347 nM.

Regarding `Cc1cc(CN([C@H]2C[C@@H](C(=O)O)C2)[C@H](C)c2ccc(Cl)cc2)ccc1CCCN1C(=O)CCC1=O` [Example 143, cis-3-([(R)-1-(4-Chloro-phenyl)-ethyl]-{4-[3-(2,5-dioxo-pyrrolidin-1-yl)-propyl]-3-methyl-benzyl}-amino)-cyclobutanecarboxylic acid], the IC50 came out at 3000 nM.

Take `COc1cc(CN(CC2(C(=O)O)CC2)C2CCc3cc(Cl)ccc32)ccc1OCCN1C(=O)CCC1=O` (stereo not shown) [Example 119, 1-[((5-Chloro-indan-1-yl)-{4-[2-(2,5-dioxo-pyrrolidin-1-yl)-ethoxy]-3-methoxy-benzyl}-amino)-methyl]-cyclopropanecarboxylic acid]: the IC50 amounted to 3200 nM.

Turning to `COc1cc(CN(C[C@H]2CC[C@H](C(=O)O)CC2)C2CCc3cc(Cl)ccc32)ccc1OCCN1C(=O)CN(C)C1=O` (stereo partly drawn) [Example 52, trans-4-[((5-Chloro-indan-1-yl)-{3-methoxy-4-[2-(3-methyl-2,5-dioxo-imidazolidin-1-yl)-ethoxy]-benzyl}-amino)-methyl]-cyclohexanecarboxylic acid], the IC50 was 177 nM.

On to `COc1cc(CN(C[C@H]2CC[C@H](C(=O)O)CC2)C(C)c2ccc3c(c2)CCC3)ccc1OCCN1C(=O)CN(C)C1=O` (stereo partly drawn) [Example 145, trans-4-[((1-Indan-5-yl-ethyl)-{3-methoxy-4-[2-(3-methyl-2,5-dioxo-imidazolidin-1-yl)-ethoxy]-benzyl}-amino)-methyl]-cyclohexanecarboxylic acid], for which the IC50 turned out to be 146 nM.

Take `CCC(c1ccc2c(c1)CCO2)N(Cc1ccc(OCCN2C(=O)CCC2=O)c(OC)c1)C[C@H]1CC[C@H](C(=O)O)CC1` (stereo partly drawn) [Example 18, trans-4-[([1-(2,3-Dihydro-benzofuran-5-yl)-propyl]-{4-[2-(2,5-dioxo-pyrrolidin-1-yl)-ethoxy]-3-methoxy-benzyl}-amino)-methyl]-cyclohexanecarboxylic acid]: the IC50 was 64 nM.

In the case of `CCC(c1ccc2c(c1)CCO2)N(Cc1ccc(OCCN2C(=O)CN(C)C2=O)c(OC)c1)C[C@H]1CC[C@H](C(=O)O)CC1` (stereo partly drawn) [Example 28, trans-4-[([1-(2,3-Dihydro-benzofuran-5-yl)-propyl]-{3-methoxy-4-[2-(3-methyl-2,5-dioxo-imidazolidin-1-yl)-ethoxy]-benzyl}-amino)-methyl]-cyclohexanecarboxylic acid], the IC50 is 81 nM.

Consider `COc1cc(CN(C[C@H]2CC[C@H](C(=O)O)CC2)C(C)c2ccc3c(c2)CCC3)ccc1OCCN1C(=O)CCC1=O` (stereo partly drawn) [Example 144, trans-4-{[{4-[2-(2,5-Dioxo-pyrrolidin-1-yl)-ethoxy]-3-methoxy-benzyl}-(1-indan-5-yl-ethyl)-amino]-methyl}-cyclohexanecarboxylic acid], for which the IC50 came out at 167 nM.

As for `CCC(c1ccc(Cl)cc1)N(Cc1ccc(OCCN2C(=O)CN(C)C2=O)c(C)c1)C[C@@H]1[C@@H](C(=O)O)C1(C)C` (stereo partly drawn) [Example 115, (1R,3R)-3-[([1-(4-Chloro-phenyl)-propyl]-{3-methyl-4-[2-(3-methyl-2,5-dioxo-imidazolidin-1-yl)-ethoxy]-benzyl}-amino)-methyl]-2,2-dimethyl-cyclopropanecarboxylic acid], the IC50 turned out to be 244 nM.

In the case of `COc1cc(CN(C[C@H]2CC[C@H](C(=O)O)CC2)[C@H](C)c2ccc(Cl)cc2)ccc1OCCN1C(=O)CCC1=O` [Example 6, trans-4-[([(R)-1-(4-Chloro-phenyl)-ethyl]-{4-[2-(2,5-dioxo-pyrrolidin-1-yl)-ethoxy]-3-methoxy-benzyl}-amino)-methyl]-cyclohexanecarboxylic acid], the IC50 stood at 20 nM.

The values above are taken from US9073853B2, “Cycloalkane carboxylic acid derivatives as CXCR3 receptor antagonists” (Sanofi, priority 2011, dated 2015).
